Results taken from ChEMBL document CHEMBL1201862, “PubChem BioAssay data set” (2004).
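Cells were grown in 96-well plates and exposed to each compound for 48 hours at five concentrations; endpoints were interpolated linearly between bracketing concentrations, or set to the highest concentration if not reached. Abbreviation: GI50, concentration required for 50% inhibition of growth.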 Calls of active or inactive are those of the source. No stated cut-off is given here; in the data, active = GI50 up to about 1.1 µM and inactive = higher.

Tests used:
Experiment in all cases: NCI anticancer screen, dose series, 48 h
[1] = system: UACC-62
[2] = system: M14
[3] = system: HL-60
[4] = system: CAKI-1
[5] = system: SF-268
[6] = system: UO-31
[7] = system: NCI-H226
[8] = system: SK-MEL-2
[9] = system: OVCAR-3
[10] = system: SK-MEL-5
[11] = system: ACHN
[12] = system: HT-29
[13] = system: U-251
[14] = system: OVCAR-4
[15] = system: SK-OV-3
[16] = system: LOX IMVI
[17] = system: OVCAR-5
[18] = system: HCT-15
[19] = system: KM-20L2
[20] = system: IGROV-1

Q: With `COc1ccc(C[C@H](N)C(=O)N2C[C@H](CO)C[C@H](n3cnc4c(N(C)C)ncnc43)C2)cc1` as the compound, how does the GI50 [1] read?
A: > 100 µM (inactive)

Q: What about the GI50 [2] of the same compound?
A: > 100 µM (inactive)

Q: And the GI50 [3]?
A: 73.5 µM (inactive)

Q: And the GI50 [4]?
A: > 100 µM (inactive)

Q: And the GI50 [5]?
A: > 100 µM (inactive)

Q: What about the GI50 [6] of the same compound?
A: > 100 µM (inactive)

Q: And the GI50 [7]?
A: > 100 µM (inactive)

Q: What about the GI50 [8] of the same compound?
A: > 100 µM (inactive)

Q: What about the GI50 [9] of the same compound?
A: > 100 µM (inactive)

Q: And the GI50 [10]?
A: > 100 µM (inactive)

Q: What about the GI50 [11] of the same compound?
A: > 100 µM (inactive)

Q: And the GI50 [12]?
A: > 100 µM (inactive)

Q: What about the GI50 [13] of the same compound?
A: > 100 µM (inactive)

Q: What about the GI50 [14] of the same compound?
A: > 100 µM (inactive)

Q: What about the GI50 [15] of the same compound?
A: > 100 µM (inactive)

Q: And the GI50 [16]?
A: > 100 µM (inactive)

Q: And the GI50 [17]?
A: > 100 µM (inactive)

Q: What about the GI50 [18] of the same compound?
A: > 100 µM

Q: What about the GI50 [19] of the same compound?
A: > 100 µM (inactive)

Q: What about the GI50 [20] of the same compound?
A: > 100 µM (inactive)

Q: `O=c1[nH]c(=O)n(C2CC(O)C(CO)O2)cc1C#Cc1cc(C(F)(F)F)cc(C(F)(F)F)c1` (centres undefined) was tested. Which GI50 [1] did it give?
A: > 25.6 µM (inactive)

Q: What about the GI50 [2] of the same compound?
A: > 24.8 µM (inactive)

Q: What about the GI50 [3] of the same compound?
A: > 60.4 µM (inactive)

Q: And the GI50 [4]?
A: > 100 µM (inactive)

Q: And the GI50 [5]?
A: 43.9 µM (inactive)

Q: And the GI50 [6]?
A: > 30.6 µM (inactive)

Q: What about the GI50 [7] of the same compound?
A: > 100 µM (inactive)

Q: What about the GI50 [8] of the same compound?
A: > 36.9 µM (inactive)

Q: What about the GI50 [9] of the same compound?
A: > 52.1 µM (inactive)

Q: And the GI50 [10]?
A: > 27.4 µM (inactive)

Q: What about the GI50 [11] of the same compound?
A: > 29.4 µM (inactive)

Q: What about the GI50 [12] of the same compound?
A: > 31.8 µM (inactive)

Q: What about the GI50 [13] of the same compound?
A: 18 µM (inactive)

Q: And the GI50 [14]?
A: > 29.4 µM (inactive)

Q: What about the GI50 [15] of the same compound?
A: 91.2 µM (inactive)

Q: And the GI50 [16]?
A: > 25.5 µM (inactive)

Q: And the GI50 [17]?
A: > 100 µM (inactive)

Q: What about the GI50 [18] of the same compound?
A: > 50.7 µM

Q: What about the GI50 [19] of the same compound?
A: > 45.4 µM (inactive)

Q: What about the GI50 [20] of the same compound?
A: > 36.4 µM (inactive)

Q: For `CC(=O)N1N=C(c2ccc3ccccc3c2O)CC1c1cccs1` (centres undefined), which GI50 [1] is on record?
A: 9.31 µM (inactive)

Q: What about the GI50 [2] of the same compound?
A: 14.4 µM (inactive)

Q: And the GI50 [4]?
A: 20.1 µM (inactive)

Q: And the GI50 [5]?
A: 12.3 µM (inactive)

Q: What about the GI50 [6] of the same compound?
A: 9.95 µM (inactive)

Q: And the GI50 [7]?
A: 40.1 µM (inactive)

Q: What about the GI50 [8] of the same compound?
A: 19 µM (inactive)

Q: And the GI50 [9]?
A: 7.96 µM (inactive)

Q: And the GI50 [10]?
A: 18.3 µM (inactive)

Q: What about the GI50 [11] of the same compound?
A: 15.6 µM (inactive)

Q: What about the GI50 [12] of the same compound?
A: 21.9 µM (inactive)

Q: And the GI50 [13]?
A: 8.09 µM (inactive)

Q: What about the GI50 [14] of the same compound?
A: 27.8 µM (inactive)

Q: What about the GI50 [15] of the same compound?
A: 44.3 µM (inactive)

Q: What about the GI50 [17] of the same compound?
A: 32.4 µM (inactive)

Q: What about the GI50 [18] of the same compound?
A: 14 µM

Q: What about the GI50 [20] of the same compound?
A: 11.4 µM (inactive)

Q: `COC1C(=[N+]=[N-])C(=O)NC(=O)N1C1OC(COC(c2ccccc2)(c2ccccc2)c2ccccc2)C(O)C1O` (centres undefined) was tested. Which GI50 [1] did it give?
A: 15.1 µM (inactive)

Q: And the GI50 [2]?
A: 19 µM (inactive)

Q: What about the GI50 [3] of the same compound?
A: 23.2 µM (inactive)

Q: And the GI50 [4]?
A: 18.6 µM (inactive)

Q: What about the GI50 [5] of the same compound?
A: 18.1 µM (inactive)

Q: And the GI50 [6]?
A: 18.2 µM (inactive)

Q: What about the GI50 [7] of the same compound?
A: 17.5 µM (inactive)

Q: And the GI50 [8]?
A: 19.1 µM (inactive)

Q: And the GI50 [9]?
A: 18.7 µM (inactive)

Q: And the GI50 [10]?
A: 16.2 µM (inactive)

Q: What about the GI50 [11] of the same compound?
A: 18.1 µM (inactive)

Q: And the GI50 [12]?
A: 18.7 µM (inactive)

Q: What about the GI50 [13] of the same compound?
A: 19.7 µM (inactive)

Q: And the GI50 [14]?
A: 14.2 µM (inactive)

Q: What about the GI50 [15] of the same compound?
A: 20.5 µM (inactive)

Q: And the GI50 [16]?
A: 15.5 µM (inactive)

Q: What about the GI50 [17] of the same compound?
A: 17.8 µM (inactive)

Q: And the GI50 [18]?
A: 18 µM

Q: What about the GI50 [19] of the same compound?
A: 17.2 µM (inactive)

Q: And the GI50 [20]?
A: 20.6 µM (inactive)

Q: With `NC12CCC(CC1=O)C2` (centres undefined) as the compound, how does the GI50 [1] read?
A: > 100 µM (inactive)

Q: What about the GI50 [2] of the same compound?
A: > 100 µM (inactive)

Q: What about the GI50 [3] of the same compound?
A: > 100 µM (inactive)

Q: And the GI50 [5]?
A: > 100 µM (inactive)

Q: What about the GI50 [6] of the same compound?
A: > 100 µM (inactive)

Q: What about the GI50 [7] of the same compound?
A: > 100 µM (inactive)

Q: What about the GI50 [8] of the same compound?
A: > 100 µM (inactive)

Q: And the GI50 [9]?
A: > 100 µM (inactive)

Q: What about the GI50 [10] of the same compound?
A: > 100 µM (inactive)

Q: What about the GI50 [11] of the same compound?
A: > 100 µM (inactive)

Q: And the GI50 [12]?
A: > 100 µM (inactive)

Q: And the GI50 [13]?
A: > 100 µM (inactive)

Q: What about the GI50 [14] of the same compound?
A: > 100 µM (inactive)

Q: And the GI50 [15]?
A: > 100 µM (inactive)

Q: And the GI50 [16]?
A: > 100 µM (inactive)

Q: And the GI50 [17]?
A: > 100 µM (inactive)

Q: And the GI50 [18]?
A: > 100 µM

Q: And the GI50 [20]?
A: > 100 µM (inactive)

Q: Which GI50 [1] does the source give for `O=C1CSC(C(/N=N/c2ccc(Cl)cc2)c2nc3ccccc3[nH]2)=N1` (centres undefined) here?
A: > 100 µM (inactive)

Q: And the GI50 [2]?
A: > 100 µM (inactive)

Q: What about the GI50 [3] of the same compound?
A: 51.6 µM (inactive)

Q: And the GI50 [4]?
A: > 100 µM (inactive)

Q: What about the GI50 [5] of the same compound?
A: > 100 µM (inactive)

Q: What about the GI50 [6] of the same compound?
A: 39.1 µM (inactive)

Q: What about the GI50 [7] of the same compound?
A: 0.0105 µM (active)

Q: And the GI50 [8]?
A: 16 µM (inactive)

Q: What about the GI50 [9] of the same compound?
A: 36.9 µM (inactive)

Q: And the GI50 [10]?
A: 25.6 µM (inactive)

Q: And the GI50 [11]?
A: 28.7 µM (inactive)

Q: And the GI50 [12]?
A: > 100 µM (inactive)

Q: What about the GI50 [13] of the same compound?
A: 53.3 µM (inactive)

Q: What about the GI50 [14] of the same compound?
A: > 100 µM (inactive)

Q: What about the GI50 [15] of the same compound?
A: 55 µM (inactive)

Q: And the GI50 [17]?
A: > 100 µM (inactive)

Q: And the GI50 [18]?
A: > 100 µM

Q: What about the GI50 [19] of the same compound?
A: > 100 µM (inactive)

Q: `O=NN1C(c2ccccc2)CNC(=O)CC1c1ccccc1` (centres undefined) was tested. Which GI50 [1] did it give?
A: 44.4 µM (inactive)

Q: And the GI50 [3]?
A: 21.9 µM (inactive)

Q: And the GI50 [4]?
A: 59.6 µM (inactive)

Q: And the GI50 [5]?
A: 78.5 µM (inactive)

Q: What about the GI50 [6] of the same compound?
A: 36.3 µM (inactive)

Q: What about the GI50 [7] of the same compound?
A: 68.5 µM (inactive)

Q: What about the GI50 [8] of the same compound?
A: 33.7 µM (inactive)

Q: What about the GI50 [9] of the same compound?
A: 22.8 µM (inactive)

Q: And the GI50 [10]?
A: 25.3 µM (inactive)

Q: And the GI50 [12]?
A: 28.6 µM (inactive)

Q: What about the GI50 [13] of the same compound?
A: 55.3 µM (inactive)

Q: And the GI50 [14]?
A: 52.8 µM (inactive)

Q: What about the GI50 [15] of the same compound?
A: 42 µM (inactive)

Q: What about the GI50 [16] of the same compound?
A: 46.7 µM (inactive)

Q: And the GI50 [17]?
A: > 100 µM (inactive)

Q: And the GI50 [18]?
A: 36 µM

Q: And the GI50 [19]?
A: 25.3 µM (inactive)

Q: What about the GI50 [20] of the same compound?
A: 63.5 µM (inactive)

Q: What does the source list for `O=C1CCCCN1`?
A: GI50 [1]: > 411 µM (inactive); GI50 [3]: 706 µM (inactive); GI50 [4]: > 1120 µM (inactive); GI50 [5]: > 1120 µM (inactive); GI50 [6]: > 1120 µM (inactive); GI50 [7]: 635 µM (inactive); GI50 [8]: > 1120 µM (inactive); GI50 [9]: > 1120 µM (inactive); GI50 [10]: > 1120 µM (inactive); GI50 [12]: > 1120 µM (inactive); GI50 [13]: > 252 µM (inactive); GI50 [14]: > 1120 µM (inactive); GI50 [15]: > 150 µM (inactive); GI50 [16]: > 1120 µM (inactive); GI50 [17]: > 1120 µM (inactive); GI50 [18]: > 1120 µM; GI50 [19]: > 1120 µM (inactive); GI50 [20]: > 1120 µM (inactive)
